# From patent publication US20110256121A1, “METHODS AND KITS FOR DIAGNOSING OR MONITORING AUTOIMMUNE AND CHRONIC INFLAMMATORY DISEASES” (THE REGENTS OF THE UNIVERSITY OF MICHIGAN, priority 2008, published 2011)
# Read-outs that look alike come from different tables or passages of the source.
# Assays:
# [1] = test system: CD70-dependent B cell help; experiment: TT48E T cell clone and autologous B cell costimulation without PWM, IgG ELISA; type: cell-based, human; conditions: P<0.05
# Experimental: T cell and B cell costimulation assays. E-rosette-purified T cells were stimulated for 16 hours with PHA and then treated with the indicated chemicals for an additional 72 hours as described above. Where indicated, T cell subsets were isolated by negative selection using magnetic beads (Miltenyi). B cells (1-4×10^5) enriched by negative selection using magnetic beads (Miltenyi) and assessed to be 70-85% pure using PE-conjugated anti-human CD21 (PharMingen), were added to washed, drug-treated autologous T cells, at T cell to B cell ratios of 4:1, 2:1, 1:1, 1:2, and 1:4. Where indicated, 0.625 μg/ml of PWM (Aldrich) was added. The cells were cultured in RPMI 1640/10% FBS/penicillin/streptomycin for 8 days in 96-well roundbottomed plates (Costar) containing a 200 μl total volume (performed in duplicate). Cells were supplemented with 50 μl of medium on day 4. Where indicated, 1 μg/ml of anti-CD70 monoclonal antibody (HNE51) (Dako) was added to the cultures. TT48E cells were similarly stimulated with PHA (1 μg/ml) for 18 hours, treated with the indicated drugs for 3 days, then similarly cultured with autologous B cells for 8 days. […]
# IgG enzyme-linked immunosorbent assays (ELISAs). […] Serial dilutions of purified human IgG (Sigma) were used for quantitation. […] The plates were read at 405 nm using a SpectraMax spectrophotometer (Molecular Devices). […]
# [2] = test system: CD70 promoter; experiment: Bisulfite sequencing of the CD70 promoter in CD4+ T cells; type: cell-based, human; conditions: anti-CD3 and anti-CD28 stimulated CD4+ T cells vs stimulated untreated controls
# Experimental: In other studies, T cells were isolated by negative selection using magnetic beads and instructions provided by the manufacturer (Pan T cell Isolation Kit, Miltenyi), and the CD4+ or CD8+ subset was similarly isolated by magnetic cell sorting. Jurkat cells (E6-1) were cultured as previously described (See, e.g., Cornacchia et al., J Immunol 140:2197 (1998)). Purified human CD4+ T cells were first stimulated with plate bound anti-CD3 and soluble anti-CD28. Briefly, 24 well plates were coated with 300 μl of anti-CD3 (10 μg/ml in PBS—SouthernBiotech) 18 hours 4° C., washed, then 2×10^6 purified T cells were added to the wells in 2 ml RPMI 1640/10% FCS containing 2 μg/ml anti-CD28 (SouthernBiotech). The plates were incubated 37° C. in a humidified atmosphere containing 5% CO2 for 18-24 hours, then treated with 5 μm 5-azaC (Aldrich), 50 μm Pca (Sigma), 20 μm Hyd (Aldrich), 40 μm UO126 (Promega) or 25 μm PD98059 (Promega), and cultured for 3 additional days as described (See, e.g., Oelke et al., Arthritis Rheum 50:1850 (2004)).
# Bisulfite sequencing. The putative CD70 promoter was identified using the published CD70 cDNA sequence and Tfsitescan software. Deoxycytosine (dC) and deoxymethylcytosine (d^mC) bases in the gene promoter and 5′ flanking sequences were identified by bisulfite treatment of purified DNA followed by nested PCR amplification of 3 sequential fragments to span the entire region. The primers were designed to avoid CG pairs and to account for the conversion of dC to dU by the bisulfite. EcoRI sites were added to the forward primers, and XbaI to the reverse, to facilitate cloning. The amplified fragments were then cloned into PBS+, and 5 clones sequenced for each fragment. The primers used were: […]
# The effect of lupus and DNA methylation inhibitors on a regulatory element in the CD70 promoter was examined. DNA was isolated from the CD4+ T cells of 7 healthy individuals or 6 lupus patients, bisulfite treated, the region from −466-−515, containing 6 CG pairs was amplified by PCR, and 5 fragments sequenced from each individual. The average methylation status of the 6 CG pairs for healthy versus lupus individuals is shown (FIG. 8, NI and Lupus, respectively). CD4+ T cells from 5 individuals were also stimulated with PHA, treated with the irreversible DNA methyltransferase inhibitor 5-azacytidine (5-azaC), and the methylation status of the 6 CG pairs similarly analyzed from the 25 fragments sequenced (FIG. 8, 5-azaC). […] Results are presented as the mean±SEM of the average methylation of the 6 CG pairs, measured from the 10-35 determinations/group.
# The effects of the DNA methylation inhibitors on the methylation status of this region were then compared. […] Again, 5 cloned fragments were sequenced from each control, for a total of 35 determinations per CG pair. […] FIG. 14 compares the average methylation for the 10 CG pairs (−515 to −423) in the T cells treated with DNA methylation inhibitors relative to stimulated, untreated controls.
# [3] = test system: CD70 mRNA; conditions: treated vs untreated T cells, real time RT-PCR
# [4] = test system: TT48E; conditions: 6 experiments
Structure (SMILES),IgG produced by B cells cultured with drug-treated TT48E vs untreated T cells [1],methylation of the 10 CG pairs between −515 and −423 of the CD70 promoter [2],CD70 mRNA relative to beta-actin [3],"increase of CD70 expression on TT48E ([4]; 1 μM 5-azaC, 3 days, P=0.048) [fold]","increase of CD70 expression on TT48E ([4]; 40 μM U0126, 3 days, P=0.004) [fold]"
"Nc1ncn([C@@H]2O[C@H](CO)[C@@H](O)[C@H]2O)c(=O)n1 [5-azaC, 5-azacytidine]",produce greater amounts of IgG,hypomethylated compared to controls,increased the expression of CD70 mRNA,1.69±0.33,
N#CC(=C(/N)Sc1ccccc1N)/C(C#N)=C(\N)Sc1ccccc1N [U0126],produce greater amounts of IgG,appears to demethylate,increased the expression of CD70 mRNA,,1.87±0.37
